Target: T1, human full-length MKNK1 (Homo sapiens, UniProt Q9BUB5, T385D)
T1 construct: GST (N); purchased Carna Biosciences 02-145; host or cells: insect cells (baculovirus expression system)
Test: MKNK1 kinase high ATP assay (TR-FRET)
Assay type: biochemical
Settings: Table 1; MKNK1 kinase high ATP assay, 2 mM ATP; read-out: MKNK1 IC50
Method: MKNK1 Kinase High ATP Assay
MKNK1-inhibitory activity at high ATP of compounds of the present invention after their preincubation with MKNK1 was quantified employing the TR-FRET-based MKNK1 high ATP assay as described in the following paragraphs.
As substrate for the kinase reaction the biotinylated peptide biotin-Ahx-[…] (C-terminus in amide form) was used, which can be purchased e.g. from the company Biosyntan (Berlin-Buch, Germany).
For the assay 50 nL of a 100 fold concentrated solution of the test compound in DMSO was pipetted into a black low volume 384 well microtiter plate (Greiner Bio-One, Frickenhausen, Germany), 2 μL of a solution of MKNK1 in aqueous assay buffer [50 mM HEPES pH 7.5, 5 mM MgCl2, 1.0 mM dithiothreitol, 0.005% (v/v) Nonidet-P40 (Sigma)] was added and the mixture was incubated for 15 min at 22° C. to allow pre-binding of the test compounds to the enzyme before the start of the kinase reaction. Then the kinase reaction was started by the addition of 3 μL of a solution of adenosine-tri-phosphate (ATP, 3.3 mM=>final conc. in the 5 μL assay volume is 2 mM) and substrate (0.1 μM=>final conc. in the 5 μL assay volume is 0.06 μM) in assay buffer and the resulting mixture was incubated for a reaction time of 30 min at 22° C. The concentration of MKNK1 was adjusted depending of the activity of the enzyme lot and was chosen appropriate to have the assay in the linear range, typical concentrations were in the range of 0.003 μg/mL. The reaction was stopped by the addition of 5 μL of a solution of TR-FRET detection reagents (5 nM streptavidine-XL665 [Cisbio Bioassays, Codolet, France] and 1 nM anti-ribosomal protein S6 (pSer236)-antibody from Invitrogen [#44921G] and 1 nM LANCE EU-W1024 labeled ProteinG [Perkin-Elmer, product no. AD0071]) in an aqueous EDTA-solution (100 mM EDTA, 0.1% (w/v) bovine serum albumin in 50 mM HEPES pH 7.5).
The resulting mixture was incubated for 1 h at 22° C. to allow the formation of complex between the phosphorylated biotinylated peptide and the detection reagents. Subsequently the amount of phosphorylated substrate was evaluated by measurement of the resonance energy transfer from the Eu-chelate to the streptavidine-XL. Therefore, the fluorescence emissions at 620 nm and 665 nm after excitation at 350 nm were measured in a TR-FRET reader, e.g. a Rubystar (BMG Labtechnologies, Offenburg, Germany) or a Viewlux (Perkin-Elmer). The ratio of the emissions at 665 nm and at 622 nm was taken as the measure for the amount of phosphorylated substrate.

T1 sequence (Q9BUB5 1-424 isoform Q9BUB5-2 T344D): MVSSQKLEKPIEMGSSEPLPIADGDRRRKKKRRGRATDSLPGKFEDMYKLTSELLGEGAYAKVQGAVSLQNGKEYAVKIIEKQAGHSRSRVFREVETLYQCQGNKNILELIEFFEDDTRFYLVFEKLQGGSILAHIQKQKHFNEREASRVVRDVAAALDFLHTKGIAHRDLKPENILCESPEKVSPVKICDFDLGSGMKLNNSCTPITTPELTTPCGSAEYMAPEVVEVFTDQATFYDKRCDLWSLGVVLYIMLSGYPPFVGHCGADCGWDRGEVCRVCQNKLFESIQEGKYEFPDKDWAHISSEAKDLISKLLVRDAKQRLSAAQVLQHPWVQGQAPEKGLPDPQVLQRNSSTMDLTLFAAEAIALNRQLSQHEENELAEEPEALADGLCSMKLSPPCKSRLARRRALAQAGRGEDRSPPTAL

SMILES	IC50
COc1cc2[nH]ncc2cc1Nc1ncnc2sc3c(c12)CC[C@H](C(=O)N1CCCC(F)C1)C3 (mixture of isomers) [Example 205, [(3RS)-3-fluoropiperidin-1-yl]{(7S)-4-[(6-methoxy-1H-indazol-5-yl)amino]-5,6,7,8-tetrahydro[1]benzothieno[2,3-d]pyrimidin-7-yl}methanone]	0.5 nM
CN(C)C(=O)[C@H]1CCc2c(sc3ncnc(Nc4ccc5[nH]ncc5c4)c23)C1 [Example 1, (7S)-4-(1H-Indazol-5-ylamino)-N,N-dimethyl-5,6,7,8-tetrahydro[1]benzothieno[2,3-d]pyrimidine-7-carboxamide]	14.3 nM
CN(C)C(=O)[C@@H]1CCc2c(sc3ncnc(Nc4ccc5[nH]ncc5c4)c23)C1 [Example 2, (7R)-4-(1H-Indazol-5-ylamino)-N,N-dimethyl-5,6,7,8-tetrahydro[1]benzothieno[2,3-d]pyrimidine-7-carboxamide]	118 nM
O=C([C@H]1CCc2c(sc3ncnc(Nc4ccc5[nH]ncc5c4)c23)C1)N1CCC1 [Example 3, Azetidin-1-yl[(7S)-4-(1H-indazol-5-ylamino)-5,6,7,8-tetrahydro[1]benzothieno[2,3-d]pyrimidin-7-yl]methanone]	11 nM
CCN(C)C(=O)[C@H]1CCc2c(sc3ncnc(Nc4ccc5[nH]ncc5c4)c23)C1 [Example 4, (7S)—N-Ethyl-4-(1H-indazol-5-ylamino)-N-methyl-5,6,7,8-tetrahydro[1]benzothieno[2,3-d]pyrimidine-7-carboxamide]	3.5 nM
CN(CC(F)(F)F)C(=O)[C@H]1CCc2c(sc3ncnc(Nc4ccc5[nH]ncc5c4)c23)C1 [Example 5, (7S)-4-(1H-Indazol-5-ylamino)-N-methyl-N-(2,2,2-trifluoroethyl)-5,6,7,8-tetrahydro[1]benzothieno[2,3-d]pyrimidine-7-carboxamide]	18.3 nM
CN(CCC(F)(F)F)C(=O)[C@H]1CCc2c(sc3ncnc(Nc4ccc5[nH]ncc5c4)c23)C1 [Example 6, (7S)-4-(1H-Indazol-5-ylamino)-N-methyl-N-(3,3,3-trifluoropropyl)-5,6,7,8-tetrahydro[1]benzothieno[2,3-d]pyrimidine-7-carboxamide]	11 nM
CC(C)N(C)C(=O)[C@H]1CCc2c(sc3ncnc(Nc4ccc5[nH]ncc5c4)c23)C1 [Example 7, (7S)-4-(1H-Indazol-5-ylamino)-N-methyl-N-(propan-2-yl)-5,6,7,8-tetrahydro[1]benzothieno[2,3-d]pyrimidine-7-carboxamide]	6 nM
CCN(C(=O)[C@H]1CCc2c(sc3ncnc(Nc4ccc5[nH]ncc5c4)c23)C1)C(C)C [Example 8, (7S)—N-Ethyl-4-(1H-indazol-5-ylamino)-N-(propan-2-yl)-5,6,7,8-tetrahydro[1]benzothieno[2,3-d]pyrimidine-7-carboxamide]	8.3 nM
O=C([C@H]1CCc2c(sc3ncnc(Nc4ccc5[nH]ncc5c4)c23)C1)N1CCOCC1 [Example 9, [(7S)-4-(1H-Indazol-5-ylamino)-5,6,7,8-tetrahydro[1]benzothieno[2,3-d]pyrimidin-7-yl](morpholin-4-yl)methanone]	25.6 nM
O=C([C@H]1CCc2c(sc3ncnc(Nc4ccc5[nH]ncc5c4)c23)C1)N1C[C@@H]2C[C@H]1CO2 [Example 10, [(7S)-4-(1H-Indazol-5-ylamino)-5,6,7,8-tetrahydro[1]benzothieno[2,3-d]pyrimidin-7-yl][(1S,4S)-2-oxa-5-azabicyclo[2.2.1]hept-5-yl]methanone]	11.1 nM
O=C([C@H]1CCc2c(sc3ncnc(Nc4ccc5[nH]ncc5c4)c23)C1)N1C[C@H]2C[C@@H]1CO2 [Example 11, [(7S)-4-(1H-Indazol-5-ylamino)-5,6,7,8-tetrahydro[I]benzothieno[2,3-d]pyrimidin-7-yl][(1R,4R)-2-oxa-5-azabicyclo[2.2.1]hept-5-yl]methanone]	4 nM

Same assay, conditions: Table 2; ratio of the IC50-value of an R-enantiomer and its corresponding S-enantiomer

SMILES	Activity-Ratio MKNK1
CN(C)C(=O)[C@H]1CCc2c(sc3ncnc(Nc4ccc5[nH]ncc5c4)c23)C1 [Example 1, (7S)-4-(1H-Indazol-5-ylamino)-N,N-dimethyl-5,6,7,8-tetrahydro[1]benzothieno[2,3-d]pyrimidine-7-carboxamide]	8.3
